The values below come from patent US20230416247A1, “DRUG-LIKE MOLECULES AND METHODS FOR THE THERAPEUTIC TARGETING OF MICRORNA-21” (University of Washington, priority 2020, published 2023).

Like-named read-outs stand apart in the source and are kept apart here.

For assay [1], the system named is mature miR-21 in HeLa cells. Nature of the assay: qRT-PCR of mature miR-21 in HeLa cells. It counts as cell-based. To be noted: for decline in levels of mature miR-21: days 4 and 5 of incubation, normalized to no compound; for reduction of all newly synthesized miR-21: worked out from the 20% decrease and miR-21 lifetime of approximately 5 days. The protocol:
FIGS. 12A and 12B compare levels of mature miR-21 in HeLa cells, as measured by standard qRT-PCR after 5 days of incubation in the presence of palbociclib and compounds −0045 (sm1), −0050 (sm3) and −0052 (sm5) (FIG. 12A); and levels of mature miR-21 in HeLa cells were measured by qRT-PCR after 4 days of incubation in the presence of palbociclib (a control) and compounds −0045 (sm1), −0050 (sm3) and −0052 (sm5) (FIG. 12B), normalized to miR-21 levels in the absence of any compound. […] The two panels represent independent duplicates of the same experiment.
HeLa cells have relatively high levels of miR-21, and this cell line was used to evaluate whether addition of the molecules would decrease levels of mature miR-21, as expected for inhibition of miR-21 processing. […] In contrast, compounds −0045, −50 and −52, induce an approximately 20% percent decline in levels of mature miR-21 (FIGS. 12A and 12B; the comparison of FIG. 12A and FIG. 12B provides an indication in the uncertainty of the data). miR-21 is very long lived, with a lifetime of approximately 5 days. […] Similar results were obtained at higher numbers of cells/plate (200 k vs at the start of the experiment), but the experiment could not be extended beyond 2 days because of the very high cell density reached. The observed trends were nonetheless in agreement with the experiments conducted at lower cell density.

Assay [2] has as its target pre-miR21. Nature of the assay: 1D 1H NMR ligand-detect titration of compounds with pre-miR21 RNA. It counts as binding, human. How it is done:
FIG. 6 compares the binding of representative compounds of the invention (see FIG. 5) to pre-miR21. 1D ^1H NMR ligand-detect titrations of compounds, generated by titrating in increasing concentrations of RNA into a solution containing 100 μM of the relevant compound in buffer containing 50 mM deuterated Tris at pH 6.5, as well as 250 mM NaCl, 50 mM KCl and 2 mM MgCl2. As increasing amounts of compounds are bound to the RNA in the course of the titration, the line width of the NMR signal increases, and the NMR peak height decreases. The fraction of compound bound can be calculated from the decrease in […] relative to an internal standard. Saturation of the curves to a value of 1 indicates the predominant presence of a single site with high binding affinity. Approximate binding constants can be calculated by fitting the data points to a binding isotherm. For reference, the data fit for compound −0052 corresponds to a Kd=200 nM, while compound −0045 corresponds to a Kd=600 nM.
The compounds show a strong pre-miR21 binding capacity.
RNA Transcription. All RNAs for ligand screening and structural or biochemical work were prepared in house using in vitro transcription on a large scale (typically 10 mL). RNA transcription and purification protocols used purified DNA oligonucleotide templates (IDT) and T7 RNA polymerase. Briefly, 1 mL of 8 μM TOP DNA (5′-CTATAGTGAGTCGTATTA-3′ (SEQ ID NO: 1)), corresponding to the phage T7 RNA polymerase promoter region, was annealed to 80 μL of 100 μM template sequences with 13 mM MgCl2, heated to 95° C. for […] then allowed to anneal to room temperature over 20 min. The annealing mixture was incubated with 5 mM of each of the four NTPs (ATP, GTP, UTP and CTP, from Sigma), transcription buffer, 8% PEG-8000 and 35 mM magnesium chloride with 0.4 mg/mL T7 RNA polymerase expressed and purified using established methods. All RNA samples are purified from crude transcriptions by 20% denaturing polyacrylamide gel electrophoresis (PAGE), electroeluted and concentrated by ethanol precipitation. The samples are re-dissolved in 12 mL of high salt wash (700 mM NaCl, 200 mM KCl, in 10 mM potassium phosphate at pH 6.5, with 10 μM EDTA to chelate any divalent ions), concentrated using Centriprep conical concentrators ([…] MWC, Millipore). The RNA was then slowly exchanged into low salt storage buffer (10 mM potassium phosphate at pH 6.5, with 10 mM NaCl and 10 μM EDTA). Prior to NMR experiments, all RNA samples were finally desalted using NAP-10 gravity columns, lyophilized and re-dissolved in ‘screening buffer’ or ‘structure buffer’ (see below), then annealed by heating for 4 min to 90° C. and snap cooling at −20° C.

Setting [3] is: 100 μM compound, 50 mM deuterated Tris pH 6.5, 250 mM NaCl, 50 mM KCl, 2 mM MgCl2, approximate, read-out: Kd (fit of NMR titration data to binding isotherm).
The mark [4] stands for this setting: estimated, FIG. 6, read-out: KD for pre-miR21.

For `O=c1[nH]c(Nc2ccc(N3CCNCC3)cn2)nc2cnccc12` [Compound 30], in assay [1], the “decline in levels of mature miR-21” value is “approximately 20%” and the “reduction of all newly synthesized miR-21” value was “about 60%”. Besides, in assay [2] (setting [3]), the Kd turned out to be 200 nM. For the same compound, the Kd in assay [2] (setting [4]) was 200 nM.
Turning to `O=c1[nH]c(Nc2ccc(N3CCNCC3)cn2)nc2cccnc12` [Compound 25], in assay [1], the “decline in levels of mature miR-21” value is given as “approximately 20%”. Besides, the “reduction of all newly synthesized miR-21” value in assay [1] is “about 60%”. Moreover, the Kd in assay [2] (setting [3]) and in assay [2] (setting [4]) was 600 nM in each case.
